Reference: patent US20110224221A1, “HEMATOPOIETIC PROTECTION AGAINST IONIZING RADIATION USING SELECTIVE CYCLIN-DEPENDENT KINASE 4/6 INHIBITORS” (priority 2008, published 2011)
Entries after “also recorded” stand apart in the source; their conditions may differ.

What was measured:
[1] = tested on: telomerized human diploid fibroblasts (tHDF); assay: Cell cycle analysis (BrdU incorporation in vitro), tHDF; type: cell-based; conditions: 24 hours exposure
From the text: (§1) FIG. 3A is a set of graphs showing the dose-response curves for cycle analysis in both cyclin-dependent kinase 4/6 (CKD4/6)-dependent cells (human telomerized human diploid fibroblasts (tHDFs, left-hand column of graphs) and a CDK4/6-dependent human melanoma cell line (WM2664, middle column of graphs)) and in CDK4/6-independent cells (a human retinoblastoma tumor suppressor protein (RB)-null melanoma cell line (A2058), right-hand column of graphs). […] The percentage of cells in the G1 phase is indicated by the data shown in the open triangles, while the percentage of cells in the S phase is shown by the data in the shaded circles and the percentage of cells in the G2/M phase is indicated by the data in the double “x”s.
(§2) Cell Lines: KPTR1, KPTR4. and KPTR5 were derived from tumor-bearing TyrRAS+Ink4a/Arf−/− by standard procedures and cultured in RPMI+10% fetal bovine serum (FBS). Telomerized HDFs (tHDFs, also known as HS68) were cultured in DMEM+10% FBS with penicillin and streptomycin. The same conditions were used for A2058 and WM2664, human melanoma cell lines with known RB-pathway mutations: A2058 is RB-null, whereas WM2664 lacks p16^INK4a/Arf. See Shields, et al., Cancer Res., 67, 1502-1512 (2007). Cells were irradiated for indicated doses in a Rad Source Inc. (Alpharetta, Ga., United States of America) RS-2000 Biological Irradiator at 160 kV, 25.0 mA, at distance setting 1, with a dose rate of 103 rads/min.
(§3) BrdU Incorporation in vitro: Cells were plated and allowed to adhere overnight or at least 6 hours prior to adding CDK4/6 inhibitor at the indicated concentrations. Cells were grown for 24 hours in the presence of CDK4/6 inhibitor. 15 minutes prior to cell harvesting, 5-Bromo-2-deoxyuridine (BrdU) was added to the media at a final concentration of 10 μM. The cells were then washed, trypsinized, pelleted, fixed, permeabilized, stained, and measured on a flow cytometer as described in manufacturer directions for the BrdU Kit (BD Biosciences Pharmingen, San Diego, Calif., United States of America).
(§4) The proliferation of seven RB-deficient human small cell lung cancer lines was also resistant to the selective CDK4/6 inhibitors.

[2] = tested on: human melanoma cell line WM2664; assay: Cell cycle analysis (BrdU incorporation in vitro), WM2664; type: cell-based; conditions: WM2664, 24 hours exposure
From the text: as §1
FIG. 8 is a set of representative cell cycle dot-plots for cyclin-dependent kinase 4/6 (CDK4/6)-dependent (WM2664) human melanoma cells (top two rows) and CDK4/6-independent (A2058) human melanoma cells (bottom two rows) that had been treated with dimethyl sulfoxide (DMSO) as a control or with 300 nM, 1 μM, 3 μM, 10 μM or 30 μM of trans-4-[[6-ethylamino)-2-[[2-phenylmethyl)-1H-indol-5-yl]amino]-4-pyrimidinyl]amino]]-cyclohexanol (CINK4).
as §2, §3, §4

[3] = tested on: telomerized human diploid fibroblasts; assay: Comet tail assay after IR; type: cell-based; conditions: 24 hours treatment prior to IR, 0-8 Gy
Experimental: Telomerized human diploid fibroblasts were irradiated and then immobilized. After immobilization, cell nuclei were exposed to an electric field by gel electrophoresis, with fragmented DNA migrating further than undamaged DNA.
Comet tail assay: Cells were seeded and allowed to adhere overnight in a 6 cm culture dish. Cells were then treated for 24 hours with a CDK4/6 inihibitor or dimethyl sulfoxide (DMSO) only. After 24 hours cells were irradiated as described. Cells were then fixed and treated as described in manufacturer instructions for the COMETASSAY™ purchased from Trevigen (Gaithersburg, Md., United States of America). In summary, cells were embedded in agarose, the membranes are permeabilized, DNA is denatured in alkali solution, and the DNA is mobilized using gel electrophoresis. Images of the comet tails were obtained by fluorescent microscopy (see Microscopy) and images were analyzed using CometScore software from TriTek Corp. (Sumerduck, Va., United States of America) at either 10× or 20× magnification.

[4] = tested on: peripheral blood lineages; assay: Peripheral blood counts after TBI; type: in vivo, mice; conditions: for bone marrow protection: after IR; for protection/recovery of peripheral blood lineages: platelets, erythrocytes, myeloid cells, lymphocytes after IR
Experimental: For comparison, data from mice that had not been exposed to IR is also shown (lightly shaded bars). […] Error bars show standard error of the mean.
Data was prepared from weekly complete blood counts on tail vein bleeds. Asterisk(s) indicate statistical significance determined by a 2-sided t-test. Error bars are +/− the standard error of the mean.
For TBI experiments, mice were irradiated using a ^137Cs source (AECL Gammacell 40 Irradiator, Atomic Energy of Canada Ltd, Mississauga, Ontario, Canada). Delivered doses were at or near the empirically determined LD90 of 7.5 Gy, consistent with prior studies. See Na Nakorn et al., J. Clin. Invest., 109, 1579-1585 (2002); Herodin et al., Blood, 101, 2609-2616 (2003); Uckun et al., Blood, 75, 638-645 (1990); and Wang et al., Proc. Natl. Acad. Sci., USA, 94, 14590-14595 (1997). Peripheral blood was collected using a tail vein nick for complete blood cells (CBCs) and analyzed with a HemaTrue analyzer (Heska Co., Loveland, Colo., United States of America).
The peripheral blood of animals after IR exposure was studied to confirm that the improved survival was due to protection of hematopoietic lineages.

Compound	cell cycle effect [1]	cell cycle effect [2]	DNA damage (comet tails) after IR [3]	bone marrow protection [4]	anemia and thrombocytopenia ([4]; lethally irradiated mice (7.5 Gy))	protection/recovery of peripheral blood lineages [4]	protection/recovery of peripheral blood lineages ([4]; listed as PD 0332991)	blood count nadirs and recovery ([4]; sub-lethal dose of TBI (6.5 Gy))
O=C1NC(=O)c2c1c1c3ccccc3[nH]c1c1[nH]c3cc(Br)ccc3c21 [Compound 2BrIC, 2-bromo-12,13-dihydro-5H-indolo[2,3-a]pyrrolo[3,4]-carbazole-5,6-dione]	strong, reversible G1-arrest	strong, reversible G1-arrest	attenuated; also recorded: potently reduce comet tail formation	marked bone marrow protection	–	–	–	–
CC(=O)c1c(C)c2cnc(Nc3ccc(N4CCNCC4)cn3)nc2n(C2CCCC2)c1=O [PD0332991, 6-acetyl-8-cyclopentyl-5-methyl-2-(5-piperazin-1-yl-pyridin-2-ylamino)-8H-pyrido-[2,3-d]-pyrimidin-7-one]	strong, reversible G1-arrest	strong, reversible G1-arrest	greatly attenuated; also recorded: potently reduce comet tail formation	marked bone marrow protection	significantly ameliorated	beneficial effect on the recovery of all peripheral blood lineages	protects all lineages of blood cells	diminished count nadirs and caused more rapid count recovery
